Our source for the GI50 and TGI values is PubChem BioAssay (NCI).

Common to all, as to assay: NCI-60 cell line screen, 48 h
The subject of assay [1] is HCT-15 colon.
For assay [2], the system named is HT29 colon.
The subject of assay [3] is IGROV1 ovarian.
In assay [4] the test system is MOLT-4 leukemia.
The subject of assay [5] is NCI-H460 lung.
The subject of assay [6] is NCI-H522 lung.
The test system of assay [7] is NCI/ADR-RES ovarian.
The subject of assay [8] is RPMI-8226 leukemia.
Assay [9] concerns U251 CNS.
Assay [10] concerns UACC-257 melanoma.

Molecules are shown by their SMILES.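 Compound exposure: 48 hours, 5 concentrations, 96-well plates. At the GI50, growth is halved. TGI is the concentration that stops growth completely.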

As to `O=C(N/N=C/c1ccc(Cl)cc1Cl)c1ccc2nc(-c3ccc(Cl)cc3)[nH]c2c1`, the GI50 in assay [1] is 1.42 µM; in [2] it was 1.97 µM; in assay [3], 1.5 µM; in assay [4], 1.55 µM; in [5], 1.56 µM; in assay [6], 2.24 µM. For the same compound, the GI50 was 1.83 µM in assay [7], 1.16 µM in assay [8], 2.1 µM in assay [9] and 2.14 µM in assay [10]. Further, the TGI in assay [1] stood at 3.03 µM; in [2] it was 5.47 µM; in [3], 2.98 µM; in assay [4] it was 4.81 µM; in assay [5], 3.13 µM; in assay [6], 5.85 µM. The TGI in assay [7] is 4.44 µM; in assay [8], 3.51 µM; in assay [9], 4.18 µM; in assay [10], 4.72 µM.

In the case of `CCOc1nccc2c1nc(-c1nonc1N)n2CC`, the GI50 in [1] was above 25 µM; in [2], above 25 µM; in assay [3] it was above 25 µM; in assay [4], above 25 µM; in [5], above 25 µM; in [6] it was 24.7 µM. Moreover, the GI50 in assay [7], in [8], in assay [9] and in assay [10] was above 25 µM each time. In addition, the TGI in assay [1], in [2], in assay [3], in assay [4], in assay [5] and in assay [6] was above 25 µM each time. Also, the TGI in assay [7], in assay [8], in assay [9] and in assay [10] was above 25 µM in each case.

Regarding `CCNNC(=O)[C@@H]1[C@H](c2cc(OC)c(OC)c(OC)c2)c2cc3c(cc2[C@H](O)[C@H]1CO)OCO3`, the GI50 was 0.398 µM in assay [1]; 0.351 µM in [2]; 0.59 µM in assay [3]; 0.4 µM in assay [4]; 0.343 µM in assay [5]; 0.288 µM in [6]. Also, the GI50 in assay [7] is 0.509 µM; in assay [8], 0.407 µM; in assay [9], 0.321 µM; in assay [10] it was 4.37 µM. Further, the TGI was above 100 µM in assay [1]; 13 µM in assay [2]; above 100 µM in [3]; above 100 µM in assay [4]; above 100 µM in [5]; 0.833 µM in assay [6]. Further, the TGI in assay [7] was 17.7 µM; in [8], above 100 µM; in assay [9], above 100 µM.

For `O=c1oc2c3ccc4cnccc4c3[nH]c2c2ccccc12`, the GI50 is 30.7 µM in [1]; 10.5 µM in assay [2]; 12.7 µM in assay [3]; 4.83 µM in assay [4]; 9.35 µM in assay [5]; 11.8 µM in assay [6]. Besides, the GI50 was 66.4 µM in [7], 7.94 µM in [8], 7.57 µM in assay [9] and 20.3 µM in assay [10]. In addition, the TGI in assay [1] is above 100 µM; in assay [2], 37.2 µM; in assay [3], above 100 µM; in [4] it was 25.4 µM; in [5], 30.2 µM; in assay [6], 77.1 µM. For the same compound, the TGI was above 100 µM in assay [7], 33.4 µM in assay [8], 20.8 µM in assay [9] and 57.6 µM in [10].

As to `c1ccc(B2OCC(C3OB(c4ccccc4)OC4COB(c5ccccc5)OC43)O2)cc1` (stereo not drawn), the TGI in [1], in assay [2], in [3], in assay [4], in assay [5] and in assay [6] was above 100 µM throughout. Besides, the TGI in assay [7], in assay [8], in assay [9] and in assay [10] was above 100 µM in each case.

As to `C=C1C(OC/C=C/COC2O[C@@H]3O[C@@]4(C)CC[C@H]5[C@H](C)CC[C@@H](C2=C)[C@@]35OO4)O[C@@H]2O[C@@]3(C)CC[C@H]4[C@H](C)CC[C@@H]1[C@@]24OO3` (stereo partly drawn), the GI50 in assay [1] was below 0.0194 µM; in assay [2] it was 0.0438 µM; in assay [3], 1.6 µM; in assay [4], 0.309 µM; in [5], 5.18 µM; in assay [6], 5.17 µM. The GI50 in [7] is 0.203 µM; in assay [9], 12.1 µM; in [10], 4.96 µM. Also, the TGI in assay [1] was 16 µM; in assay [2], above 49.2 µM; in assay [3], above 36.6 µM; in [4], above 100 µM; in assay [5], 27.2 µM; in assay [6] it was 69.6 µM. The TGI in [7] is 18.1 µM; in assay [8], 10.6 µM; in assay [9], 25.7 µM; in [10], 36 µM.
